SMILES strings stand for the structures.

One assay deals with AM2 S31 (wild-type serine at position 31 in the M2 protein), influenza virus A/Udorn/72 (Influenza A virus, UniProt P0DOF5). Nature of the assay: cell-based. The conditions noted are these: 100 uM; Xenopus oocytes; activity range class.
AM2 S31 (wild-type serine at position 31 in the M2 protein), influenza virus A/Udorn/72, sequence (P0DOF5 whole entry, looked up): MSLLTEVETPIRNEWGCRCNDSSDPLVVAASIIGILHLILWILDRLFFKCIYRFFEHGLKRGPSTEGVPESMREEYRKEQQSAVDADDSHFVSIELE
As to `F[B-](F)(F)C[NH2+]C12CC3CC(CC(C3)C1)C2` [Example 204a, N-[(Trifluoro-4-boranyl)methyl]adamantan-1-aminium], the “S31 OOcyte Inhibition at 100 uM (%)” value is on record as “A ((A)=31-95%)”.

Staying with this assay, now noted: 100 uM; Xenopus oocytes; activity range class; read-out: S31 OOcyte Inhibition at 100 uM (%).
Regarding `c1csc(-c2ccc(CNC34CC5CC(CC(C5)C3)C4)cn2)c1` [Example 58a, N-((6-(thiophen-2-yl)pyridin-3-yl)methyl)adamantan-1-amine], the inhibition at 100 µM was in the range of 31 to 95%.
Same read-out and setting: the value for `c1cc(-c2ccc(CNC34CC5CC(CC(C5)C3)C4)cn2)cs1` [Example 59a, N-((6-(thiophen-3-yl)pyridin-3-yl)methyl)adamantan-1-amine] was 0 to 30%; that for `Brc1csc(CNC23CC4CC(CC(C4)C2)C3)c1` [Example 105a, N-((4-bromothiophen-2-yl)methyl)adamantan-1-amine] was 31 to 95%.
Still for that read-out and setting: to `c1csc(-c2nnc(CNC34CC5CC(CC(C5)C3)C4)o2)c1` [Example 147a, Adamantan-1-yl-(5-thiophen-2-yl-[1,3,4]oxadiazol-2-ylmethyl)-amine] belongs 0 to 30%.
Still for that read-out and setting: to `O=C1CCCN1c1ccc(CNC23CC4CC(CC(C4)C2)C3)cc1` [Example 45a, 1-(4-((adamantan-1-ylamino)methyl)phenyl)pyrrolidin-2-one] belongs 0 to 30%.
With `Oc1cc(-c2ccccc2)ccc1CNC12CC3CC(CC(C3)C1)C2` [Example 47a, 4-(Adamantan-1-ylaminomethyl)-biphenyl-3-ol], the inhibition at 100 µM was in the range of 0 to 30%.
Still for that read-out and setting: to `Oc1cc(Br)ccc1CNC12CC3CC(CC(C3)C1)C2` [Example 50a, 2-(((3s,5s,7s)-adamantan-1-ylamino)methyl)-5-bromophenol] belongs 31 to 95%; to `c1ccc(-c2nc(CNC34CC5CC(CC(C5)C3)C4)cs2)cc1` [Example 132a, N-((2-phenylthiazol-4-yl)methyl)adamantan-1-amine], 0 to 30%; to `CSc1ccc(-c2ccc(CNC34CC5CC(CC(C5)C3)C4)s2)cc1` [Example 112a, N-((5-(4-(methylthio)phenyl)thiophen-2-yl)methyl)adamantan-1-amine], 0 to 30%.
`FC(F)(F)c1cccc(-c2nc(CNC34CC5CC(CC(C5)C3)C4)no2)c1` [Example 125a, N-((5-(3-(trifluoromethyl)phenyl)-1,2,4-oxadiazol-3-yl)methyl)adamantan-1-amine]: the inhibition at 100 µM was 0 to 30%.
Still for that read-out and setting: the value for `Oc1cc(OCc2ccccc2)ccc1CNC12CC3CC(CC(C3)C1)C2` [Example 37a, 2-(Adamantan-1-ylaminomethyl)-5-benzyloxy-phenol] was 31 to 95%; that for `CC(=O)c1ccc(CNC23CC4CC(CC(C4)C2)C3)cc1` [Example 44a] was 0 to 30%.
Same read-out and setting: the value for `CC(C)c1csc(CNC23CC4CC(CC(C4)C2)C3)n1` [Example 84a, N-((4-isopropylthiazol-2-yl)methyl)adamantan-1-amine] was 0 to 30%; that for `c1cc(-c2ccc(CNC34CC5CC(CC(C5)C3)C4)o2)[nH]n1` [Example 162a, N-((5-(1H-pyrazol-5-yl)furan-2-yl)methyl)adamantan-1-amine] was 0 to 30%; that for `OC1CCC(CNC23CC4CC(CC(C4)C2)C3)CC1` (stereo not drawn) [Example 170a, 4-(Adamantan-1-ylaminomethyl)-cyclohexanol] was 0 to 30%.
`C(#Cc1ccccc1)CNC12CC3CC(CC(C3)C1)C2` [Example 198a, N-(3-phenylprop-2-yn-1-yl)adamantan-1-amine]: the inhibition at 100 µM was in the range of 0 to 30%.
Same read-out and setting: to `COc1ccc(CNC23CC4CC(CC(C4)C2)C3)s1` [Example 75a, N-((5-methoxythiophen-2-yl)methyl)adamantan-1-amine] belongs 31 to 95%.
The same measure, in the same setting: the value for `C(NC12CC3CC(CC(C3)C1)C2)c1noc(C2CC2)n1` [Example 166a] was 0 to 30%; that for `COc1ccc(-c2cc(CNC34CC5CC(CC(C5)C3)C4)on2)cc1` [Example 122a, N-((3-(4-methoxyphenyl)isoxazol-5-yl)methyl)adamantan-1-amine] was 0 to 30%.
For the compound `Cc1cccc2nc(CNC34CC5CC(CC(C5)C3)C4)[nH]c12` [Example 184a, Adamantan-1-yl-(7-methyl-1H-benzoimidazol-2-ylmethyl)-amine], the inhibition at 100 µM is 0 to 30%.

Still in this assay, the particulars now being: Table 1; 100 uM; Xenopus oocytes, pH 5.5, -20 mV; read-out: S31 OOcyte Inhibition at 100 uM (%).
As to `c1ncc(CCNCC23CC4CC(CC(C4)C2)C3)[nH]1` [Example 1, Adamantan-1-ylmethyl-[2-(3H-imidazol-4-yl)-ethyl]-amine], the inhibition at 100 µM was 0 to 30%.
The same measure, in the same setting: to `O=[N+]([O-])c1ccc(CNC23CC4CC(CC(C4)C2)C3)cc1` [Example 19, Adamantan-1-yl-(4-nitro-benzyl)-amine] belongs 31 to 95%.
Still for that read-out and setting: to `CC(NC1C2CC3CC(C2)CC1C3)c1ccc(O)cc1O` (stereo not drawn) [Example 102, 4-[1-(Adamantan-2-ylamino)-ethyl]-benzene-1,3-diol] belongs 31 to 95%.
The same measure, in the same setting: the value for `O=[N+]([O-])c1ccccc1CNC12CC3CC(CC(C3)C1)C2` [Example 30, Adamantan-1-yl-(2-nitro-benzyl)-amine] was 31 to 95%; that for `Oc1ccc(CNC23CC4CC(CC(C4)C2)C3)cc1F` [Example 48, 4-(Adamantan-1-ylaminomethyl)-2-fluoro-phenol] was 31 to 95%.
For the compound `Cc1cc(CNC23CC4CC(CC(C4)C2)C3)ccc1O` [Example 51, 4-(Adamantan-1-ylaminomethyl)-2-methyl-phenol], the inhibition at 100 µM is 31 to 95%.
On the same count and under the same terms, the value for `Oc1ccc(CNC23CC4CC(CC(C4)C2)C3)c(Cl)c1` [Example 58, 4-(Adamantan-1-ylaminomethyl)-3-chloro-phenol] was 31 to 95%.
Still for that read-out and setting: to `COc1cc(F)c(CNC23CC4CC(CC(C4)C2)C3)c(F)c1` [Example 67, Adamantan-1-yl-(2,6-difluoro-4-methoxy-benzyl)-amine] belongs 31 to 95%.
The same measure, in the same setting: to `CC(NCc1ccc(O)cc1)C12CC3CC(CC(C3)C1)C2` (stereo not drawn) [Example 4, 4-[(1-Adamantan-1-yl-ethylamino)-methyl]-phenol] belongs 31 to 95%; to `c1csc(-c2ccc(CNC34CC5CC(CC(C5)C3)C4)s2)c1` [Example 78, N-([2,2′-Bithiophen]-5-ylmethyl)adamantan-1-amine], 0 to 30%.
In the case of `Oc1c(F)cc(CNC23CC4CC(CC(C4)C2)C3)cc1Cl` [Example 68, 4-(Adamantan-1-ylaminomethyl)-2-chloro-6-fluoro-phenol], the inhibition at 100 µM lay in the range of 31 to 95%.
Still for that read-out and setting: the value for `C[S+]([O-])c1ccc(CNC23CC4CC(CC(C4)C2)C3)cc1` (stereo not drawn) [Example 24, Adamantan-1-yl-(4-methanesulfinyl-benzyl)-amine] was 0 to 30%.
On the same count and under the same terms, to `Oc1ccc(CNC23CC4CC(CC(C4)C2)C3)cc1O` [Example 45, 4-(Adamantan-1-ylaminomethyl)-benzene-1,2-diol] belongs 31 to 95%; to `CS(=O)(=O)c1ccc(CNC23CC4CC(CC(C4)C2)C3)cc1` [Example 25, Adamantan-1-yl-(4-methanesulfonyl-benzyl)-amine], 31 to 95%.
Still for that read-out and setting: to `CN(CCC#N)c1ccc(CNC23CC4CC(CC(C4)C2)C3)cc1` [Example 38, 3-((4-((Adamantan-1-ylamino)methyl)phenyl)(methyl)amino)propanenitrile] belongs 0 to 30%.

Staying with this assay, now noted: Table 3; 100 uM; Xenopus oocytes, pH 5.5, -20 mV; read-out: S31 OOcyte Inhibition at 100 uM (%).
As for `OC12CC3CC(C1)CC(NCc1noc(C4CCCCC4)n1)(C3)C2` [Example 86b, (1s,3r,5R,7S)-3-(((5-cyclohexyl-1,2,4-oxadiazol-3-yl)methyl)amino)adamantan-1-ol], the inhibition at 100 µM is 0 to 30%.
Still for that read-out and setting: to `CSc1ccc(-c2cc(CNC34CC5CC(CC3C5)C4)no2)cc1` [Example 90b, (2R,3as,5S,6as)-N-((5-(4-(methylthio)phenyl)isoxazol-3-yl)methyl)octahydro-2,5-methanopentalen-3a-amine] belongs 0 to 30%; to `Brc1ccsc1CNC12CC3CC(CC(C3)C1)C2` [Example 47b, N-((3-Bromothiophen-2-yl)methyl)adamantan-1-amine], 31 to 95%.
The same measure, in the same setting: to `C1COC(c2nc(CNC34CC5CC(CC(C5)C3)C4)no2)C1` (stereo not drawn) [Example 21b, N-((5-(tetrahydrofuran-2-yl)-1,2,4-oxadiazol-3-yl)methyl)adamantan-1-amine] belongs 0 to 30%; to `CCSc1ncc(CNC23CC4CC(CC(C4)C2)C3)cn1` [Example 56b, N-((2-(ethylthio)pyrimidin-5-yl)methyl)adamantan-1-amine], 0 to 30%.
The same measure, in the same setting: to `Clc1ccccc1-c1nc(CNC23CC4CC(CC(C4)C2)C3)no1` [Example 31b, N-((5-(2-chlorophenyl)-1,2,4-oxadiazol-3-yl)methyl)adamantan-1-amine] belongs 0 to 30%; to `Cc1ncc(CNC23CC4CC(CC(C4)C2)C3)s1` [Example 16b, N-((2-methylthiazol-5-yl)methyl)adamantan-1-amine], 0 to 30%; to `COCc1nc(CNC23CC4CC(CC(C4)C2)C3)no1` [Example 23b, N-((5-(methoxymethyl)-1,2,4-oxadiazol-3-yl)methyl)adamantan-1-amine], 0 to 30%.
With `CSc1ccc(-c2cc(CNCC34CC5CC(CC(C5)C3)C4)no2)cc1` [Example 40b, 1-((3r,5r,7r)-adamantan-1-yl)-N-((5-(4-(methylthio)phenyl)isoxazol-3-yl)methyl)methanamine], the inhibition at 100 µM lay in the range of 0 to 30%.
Same read-out and setting: the value for `Clc1ncc(CNC23CC4CC(CC(C4)C2)C3)s1` [Example 13b, N-((2-chlorothiazol-5-yl)methyl)adamantan-1-amine] was 31 to 95%.
The same measure, in the same setting: the value for `Clc1nc(CNC23CC4CC(CC(C4)C2)C3)ns1` [Example 10b, N-((5-chloro-1,2,4-thiadiazol-3-yl)methyl)adamantan-1-amine] was 31 to 95%; that for `CCCSc1ncc(CNC23CC4CC(CC(C4)C2)C3)cn1` [Example 62b, N-((2-propylthiopyrimidin-5-yl)methyl)adamantan-1-amine] was 0 to 30%.

Source of the values: US9884832B2 (priority 2011, dated 2018).
